2 compounds from US6784172B2, “Processes for preparation of cyclopenta[b][1,4]diazepino[6,7,1-hi]indoles and derivatives” (Wyeth, priority 2000, dated 2004) can be followed below.

As to `CC(=O)N1CCN2c3c(cccc3C3CCCC32)C1` (racemic) [Example 3, 3-Acetyl-1,2,3,4,8,9,10,10a-octahydro-7bH-cyclopenta[b][1,4]diazepino[6,7,1-hi]indole], the melting point (in general, the temperature of the solid-liquid transition) was in the range of 111 to 113 °C.
To `c1cc2c3c(c1)c1c(n3CCNC2)CCC1` [Example 1, 1,2,3,4,9,10-Hexahydro-8H-cyclopenta[b][4,1]diazepino[6,7,1-hi]indole] belongs 66 to 68 °C.
